# Measured values as given in PubChem BioAssay AID2060617 (Molecular Pharmacology Branch, DTP, NCI, 2025).
# pIC50: −log10 of the molar value.
# Tested on: 485368-065-R4-J2-PDC spheroids with HUVEC/MSC, viability
# Assay: Anticancer human tumor 485368-065-R4-J2-PDC patient-derived pancreatic carcinoma cell line growth inhibition [CLK]
# Settings: for pIC50: curve of first compound; for viability, T/C: stronger effect = lower value
# Description: A high-throughput screen of multi-cell type tumor spheroids was designed to identify active combinations of […] and targeted small molecules. Complex spheroids include a stromal component modeled by human endothelial cells (HUVEC) and fibroblasts modeled by human mesenchymal stem cells (MSCs). The concentration ranges selected for each drug and investigational agent were based upon clinically achievable concentrations if the clinical Cmax of the agent was known.
# Compounds. The drugs and investigational agents: cirtuvivint (SM08502; NSC835563), CC-671 (NSC850746), vemurafenib (NSC761431), tapotoclax (NSC804041), sotorasib (NSC818433), adagrasib (NSC831453), MRTX-1133 (NSC836407), BAY2416964 (NSC825713), copanlisib (NSC816437), inavolisib (NSC800729), abemaciclib (NSC768073), osimertinib (NSC779217), entinostat (NSC756642), eltanexor (KPT-8602, NSC794443), venetoclax (NSC766270), ceralasertib (NSC777638), bortezomib (NSC756655), olaparib (NSC753686), talazoparib (NSC767125), alisertib (NSC759677), peposertib (NSC802822), gemcitabine (NSC613327), 5-fluorouracil (NSC19893), SN-38 (NSC673596), oxaliplatin (NSC266046), paclitaxel (NSC125973), and doxorubicin (NSC123127), were obtained from the National Cancer Institute (NCI) Developmental Therapeutics Program Chemical Repository. The FDA-approved anticancer drug set is available from the Developmental Therapeutics Program at https://dtp.cancer.gov/organization/dscb/obtaining/available plates.htm. […] The stock solutions were prepared in dimethyl sulfoxide (DMSO, Sigma-Aldrich, St. Louis, MO, cat. D2650), except for the platinum complexes which were prepared in saline (Quality Biological, Gaithersburg, MD, cat. 114-055-101), at 800-fold the tested concentration and stored at -70 degrees C prior to their use. All drugs and investigational agents were tested over a range starting from a high concentration at or near the clinical Cmax and decreasing in half-log increments. If the clinical Cmax for an agent had not been determined, the highest concentration tested was 10 microM.
# Cell Culture. All cells were maintained in an incubator at 37 degrees C and 5% CO2 with 95% humidity. The PDC lines were cultured according to standard operating procedures established by the NCI PDMR. Briefly, all PDCs were thawed and cultured in Matrigel-coated flasks prepared with a working solution of 1X Ham's F-12 nutrient mix, without supplementation (Invitrogen, Waltham, MA, cat. 11765054), 100 U/mL penicillin-streptomycin (Invitrogen, cat. 15140122), and 2.5% Matrigel (Corning Inc., Corning, NY, cat. 354248) for the first three passages. The 947758-054-R-J2-PDC line was cultured in 6B/Colon 1A media, which includes advanced DMEM/F-12 (Thermo Fisher Scientific, cat. 12634028), 10 mM HEPES (Thermo Fisher Scientific, cat. 15630080), 1X GlutaMAX supplement (Thermo Fisher Scientific, cat. 35050061), 0.1 mg/mL primocin (InvivoGen, cat. ant-pm-2), 10% defined fetal bovine serum, heat inactivated (HyClone Laboratories Inc., cat. SH30070.03HI), 1.25 mM N-Acetyl-L-cysteine (Sigma-Aldrich, cat. A9165), 10 mM nicotinamide (Sigma-Aldrich, cat. N0636), 1X B-27 supplement (Thermo Fisher Scientific, cat. 17504044), 1X N-2 supplement (Thermo Fisher Scientific, cat. 17502048), and 10 microM Y-27632 dihydrochloride (Tocris Bioscience, cat. 1254). The 876862-298-R-J1-PDC was cultured in 6E media, which includes all 6B/Colon 1A media components plus 50% L-WRN conditioned media (ATCC, cat. CRL-3276), 50 ng/mL recombinant human EGF recombinant protein (hEGF; Thermo Fisher Scientific, cat. PHG0311), 10 ng/mL recombinant human fibroblast growth factor 10 (hGFG-10; PeproTech, cat. 100-26), 1 ng/mL recombinant human fibroblast growth factor 2 (hFGF-2; PeproTech, cat. 100-18B), and 1 µM prostaglandin E2 (PGE2; Tocris, cat. 2296). The 227483-062-R1-J1-PDC line was cultured in Panc media, containing all 6E components except hFGF-2, with the addition of 500 nM SB-431542 (Selleckchem, cat. S1067) and 10 nM gastrin (Tocris, cat. 3006). […]
# [1] = second compound 0.0316 µM, first compound 0.0316 µM
# [2] = second compound 0.0316 µM, first compound 0.1 µM
# [3] = second compound 0.0316 µM, first compound 0.316 µM
# [4] = second compound 0.0316 µM, first compound 1 µM
# [5] = second compound 0.0316 µM, first compound 3.16 µM
# [6] = second compound 0.0316 µM, first compound 10 µM
# [7] = second compound 0.1 µM, first compound 0.0316 µM
# [8] = second compound 0.1 µM, first compound 0.1 µM
# [9] = second compound 0.1 µM, first compound 0.316 µM
# [10] = second compound 0.1 µM, first compound 1 µM
# [11] = second compound 0.1 µM, first compound 3.16 µM
# [12] = second compound 0.1 µM, first compound 10 µM
# [13] = second compound 0.316 µM, first compound 0.0316 µM
# [14] = second compound 0.316 µM, first compound 0.1 µM
# [15] = second compound 0.316 µM, first compound 0.316 µM
# [16] = second compound 0.316 µM, first compound 1 µM
# [17] = second compound 0.316 µM, first compound 3.16 µM
# [18] = second compound 0.316 µM, first compound 10 µM
# [19] = second compound 1 µM, first compound 0.0316 µM
# [20] = second compound 1 µM, first compound 0.1 µM
# [21] = second compound 1 µM, first compound 0.316 µM
# [22] = second compound 1 µM, first compound 1 µM
# [23] = second compound 1 µM, first compound 3.16 µM
# [24] = second compound 1 µM, first compound 10 µM
# [25] = second compound 3.16 µM, first compound 0.0316 µM
# [26] = second compound 3.16 µM, first compound 0.1 µM
# [27] = second compound 3.16 µM, first compound 0.316 µM
# [28] = second compound 3.16 µM, first compound 1 µM
# [29] = second compound 3.16 µM, first compound 3.16 µM
# [30] = second compound 3.16 µM, first compound 10 µM
# [31] = second compound 10 µM, first compound 0.0316 µM
# [32] = second compound 10 µM, first compound 0.1 µM
# [33] = second compound 10 µM, first compound 0.316 µM
# [34] = second compound 10 µM, first compound 1 µM
# [35] = second compound 10 µM, first compound 3.16 µM
# [36] = second compound 10 µM, first compound 10 µM
# 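Note: spheroids exposed to compounds for seven days.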
# 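Throughout, for viability, T/C: 100% = DMSO vehicle control wells.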
smiles,measurement,setting,value
C=C(F)C(=O)N1CCN(c2nc(OCC3CCCN3C)nc3c2CCN(c2cccc4cccc(Cl)c24)C3)CC1CC#N (centres undefined) + CN1CCN(c2cc(C(=O)Nc3cc4cc(-c5cnn(C)c5)ccc4cn3)ccn2)CC1,pIC50,second compound 0.0316 µM,< 5.00
same,pIC50,second compound 0.1 µM,< 5.00
same,pIC50,second compound 0.316 µM,< 5.00
same,pIC50,second compound 1 µM,> 7.50
same,pIC50,second compound 3.16 µM,> 7.50
same,pIC50,second compound 10 µM,> 7.50
same,"viability, T/C",[1],114%
same,"viability, T/C",[2],116%
same,"viability, T/C",[3],108%
same,"viability, T/C",[4],114%
same,"viability, T/C",[5],105%
same,"viability, T/C",[6],110%
same,"viability, T/C",[7],109%
same,"viability, T/C",[8],105%
same,"viability, T/C",[9],106%
same,"viability, T/C",[10],109%
same,"viability, T/C",[11],105%
same,"viability, T/C",[12],95.3%
same,"viability, T/C",[13],89.7%
same,"viability, T/C",[14],85.6%
same,"viability, T/C",[15],89.4%
same,"viability, T/C",[16],77.8%
same,"viability, T/C",[17],77.4%
same,"viability, T/C",[18],57.4%
same,"viability, T/C",[19],1.02%
same,"viability, T/C",[20],1.73%
same,"viability, T/C",[21],2.07%
same,"viability, T/C",[22],1.58%
same,"viability, T/C",[23],1.92%
same,"viability, T/C",[24],3.55%
same,"viability, T/C",[25],1.58%
same,"viability, T/C",[26],1.31%
same,"viability, T/C",[27],1.13%
same,"viability, T/C",[28],2.84%
same,"viability, T/C",[29],1.64%
same,"viability, T/C",[30],2%
same,"viability, T/C",[31],1.69%
same,"viability, T/C",[32],2.28%
same,"viability, T/C",[33],1.56%
same,"viability, T/C",[34],2.01%
same,"viability, T/C",[35],3.1%
same,"viability, T/C",[36],1.56%
C=CC(=O)N1CCN(c2nc(=O)n(-c3c(C)ccnc3C(C)C)c3nc(-c4c(O)cccc4F)c(F)cc23)C(C)C1 (centres undefined) + CN1CCN(c2cc(C(=O)Nc3cc4cc(-c5cnn(C)c5)ccc4cn3)ccn2)CC1,pIC50,second compound 0.0316 µM,< 5.00
same,pIC50,second compound 0.1 µM,< 5.00
same,pIC50,second compound 0.316 µM,< 5.00
same,pIC50,second compound 1 µM,> 7.50
same,pIC50,second compound 3.16 µM,> 7.50
same,pIC50,second compound 10 µM,> 7.50
same,"viability, T/C",[1],107%
same,"viability, T/C",[2],106%
same,"viability, T/C",[3],99.6%
same,"viability, T/C",[4],104%
same,"viability, T/C",[5],99.5%
same,"viability, T/C",[6],106%
same,"viability, T/C",[7],96.7%
same,"viability, T/C",[8],121%
same,"viability, T/C",[9],107%
same,"viability, T/C",[10],108%
same,"viability, T/C",[11],105%
same,"viability, T/C",[12],102%
same,"viability, T/C",[13],83.3%
same,"viability, T/C",[14],86.6%
same,"viability, T/C",[15],94.9%
same,"viability, T/C",[16],94.1%
same,"viability, T/C",[17],88.9%
same,"viability, T/C",[18],78.7%
same,"viability, T/C",[19],1.22%
same,"viability, T/C",[20],1.11%
same,"viability, T/C",[21],1.36%
same,"viability, T/C",[22],1.9%
same,"viability, T/C",[23],3.44%
same,"viability, T/C",[24],3.58%
same,"viability, T/C",[25],3.01%
same,"viability, T/C",[26],2.65%
same,"viability, T/C",[27],2.4%
same,"viability, T/C",[28],2.51%
same,"viability, T/C",[29],4.69%
same,"viability, T/C",[30],10.6%
same,"viability, T/C",[31],1.58%
same,"viability, T/C",[32],2.84%
same,"viability, T/C",[33],2.36%
same,"viability, T/C",[34],3.44%
same,"viability, T/C",[35],4%
same,"viability, T/C",[36],8.87%
